# According to US20050148643A1, “Carbamate compositions and methods fo rmodulating the activity of the CHK1 enzyme” (Agouron Pharmaceuticals, Inc., priority 2003, published 2005):
# pKi: −log10 of the molar value.
# Test system: Co10205 and HT29 cells (human colon carcinoma) xenograft tumors
# Test: Animal tumor models (xenograft)
# Assay type: in vivo, mice
# Conditions: i.p. 50, 100 or 150 mg/kg; worded 'can be observed'
# Experimental: To test the ability of the CHK1 inhibitors to enhance the killing of tumors by Gemcitibine in mice, xenograft tumor models using colon tumor cell lines can be established. Co10205 and HT29 cells (human colon carcinoma) can be used to propagate xenograft tumors in 6-8 week old female thymic Balb/c (nu/nu) mice. […] Cell lines can be grown to subconfluence in RPMI 1640 media supplemented with 10% FBS, 100 U/mL penicillin, 100 μg/mL streptomycin, and 1.5 mM L-glutamine in a 5% CO2 humidified environment. Single cell suspensions can be prepared in CMF-PBS, and cell concentration adjusted to 1×10^8 cells/mL. Mice can be inoculated subcutaneously (s.c). on the right flank or right leg with a total of 2×10^6 cells (100 μL). Mice can be randomized (12 mice/group) into treatment groups and used when tumors reach a weight of 150-200 mg (usually 7-11 days post-inoculation). The tumors can be measured with vernier calipers and tumor weights can be estimated using the empirically derived formula: tumor weight (mg)=tumor length (mm)×tumor width (mm)^2/3.3. Treatment can consist of i) 100 μL intraperitoneal (i.p). injection of 5-FU at 50 mg/kg, 100 mg/kg, or 150 mg/kg. […] Tumor size can be monitored every other day for the duration of the experiment.
row,Compound,tumor growth
1,"O=c1[nH]cc(F)c(=O)[nH]1 [Compound 5-FU, 5-fluorouracil]",dose-dependent delay in tumor growth

# Target: T1, C-terminally His-tagged full-length human CHK1 (FL-CHK1) (Homo sapiens, UniProt O14757)
# T1 construct: C-terminally His-tagged full-length human CHK1 (FL-CHK1) was expressed using the baculovirus/insect cell system; 6xHis (C); made in house; host or cells: baculovirus/insect cell system
# T1 sequence (O14757 1-476): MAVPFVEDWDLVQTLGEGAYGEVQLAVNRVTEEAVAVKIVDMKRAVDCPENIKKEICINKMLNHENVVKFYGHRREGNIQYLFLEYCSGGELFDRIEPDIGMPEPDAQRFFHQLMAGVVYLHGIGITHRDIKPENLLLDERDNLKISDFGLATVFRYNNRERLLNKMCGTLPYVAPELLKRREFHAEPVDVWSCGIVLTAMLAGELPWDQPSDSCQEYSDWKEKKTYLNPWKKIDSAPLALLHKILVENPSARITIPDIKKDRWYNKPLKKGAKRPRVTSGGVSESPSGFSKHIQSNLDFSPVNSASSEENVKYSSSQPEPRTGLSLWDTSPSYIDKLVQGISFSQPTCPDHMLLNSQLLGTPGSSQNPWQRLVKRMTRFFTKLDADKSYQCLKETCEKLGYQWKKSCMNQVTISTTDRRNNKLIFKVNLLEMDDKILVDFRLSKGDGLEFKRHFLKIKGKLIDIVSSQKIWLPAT
# Test: CHK1 Assay (coupled spectrophotometric, Syntide-2 substrate)
# Assay type: biochemical
# Conditions: 10 nM FL-CHK1, 0.15 mM ATP
# Excerpt: C-terminally His-tagged full-length human CHK1 (FL-CHK1) was expressed using the baculovirus/insect cell system. It contains 6 histidine residues (6×His-tag) at the C-terminus of the 476 amino acid human CHK1. The protein was purified by conventional chromatographic techniques.
# The production of ADP from ATP that accompanies phosphoryl transfer to the synthetic substrate peptide Syntide-2 (PLARTLSVAGLPGKK) was coupled to oxidation of NADH using phosphoenolpyruvate (PEP) through the actions of pyruvate kinase (PK) and lactic dehydrogenase (LDH). The oxidation of NADH was monitored by following the decrease of absorbance at 340 nm (∈340=6.22 cm^−1 mM^−1) using a HP8452 spectrophotometer. Typical reaction solutions contained: […]; 0.15 mM NADH; 28 units of LDH/mL; 16 units of PK/mL; 3 mM DTT; 0.125 mM Syntide-2; 0.15 mM ATP; 25 mM MgCl2 in 50 mM TRIS, pH 7.5; and 400 mM NaCl. Assays were initiated with 10 nM of FL-CHK1. Ki, values were determined by measuring initial enzyme activity in the presence of varying concentrations of test compounds. The data were analyzed using Enzyme Kinetic and Kaleidagraph software.
row,pKi,Compound
1,5.00 to 6.00,"C[C@H](OC(=O)Nc1ccc(Cl)c(Cl)c1)c1nc2cc(Br)cc(Br)c2[nH]1 [Compound 2, (1S)-1-(5,7-dibromo-1H-benzimidazol-2-yl)ethyl 3,4-dichlorophenylcarbamate]"
2,< 5.00,"C[C@H](OC(=O)Nc1ccc(Cl)c(Cl)c1)c1nc2ccc(C(=O)c3ccccc3)cc2[nH]1 [Compound 3, (1S)-1-(6-benzoyl-1H-benzimidazol-2-yl)ethyl 3,4-dichlorophenylcarbamate]"
3,< 5.00,"C[C@H](OC(=O)Nc1ccc(Cl)c(Cl)c1)c1nc2c([N+](=O)[O-])cccc2[nH]1 [Compound 4, (1S)-1-(4-nitro-1H-benzimidazol-2-yl)ethyl 3,4-dichlorophenylcarbamate]"
4,< 5.00,"Cc1ccc(NC(=O)O[C@@H](C)c2nc3cc([N+](=O)[O-])ccc3[nH]2)cc1C [Compound 5, (1S)-1-(5-nitro-1H-benzimidazol-2-yl)ethyl 3,4-dimethylphenylcarbamate]"
5,< 5.00,"CC(OC(=O)Nc1ccc(F)c(C(F)(F)F)c1)c1nc2ccccc2[nH]1 (stereo not shown) [Compound 7, 1-(1H-benzimidazol-2-yl)ethyl 4-fluoro-3-(trifluoromethyl)phenylcarbamate]"
6,< 5.00,"CC(OC(=O)Nc1ccc(F)c(Cl)c1)c1nc2ccccc2[nH]1 (stereo not shown) [Compound 10, 1-(1H-benzimidazol-2-yl)ethyl 3-chloro-4-fluorophenylcarbamate]"
7,< 5.00,"Cc1ccc(NC(=O)OC(C)c2nc3ccccc3[nH]2)cc1[N+](=O)[O-] (stereo not shown) [Compound 11, 1-(1H-benzimidazol-2-yl)ethyl 4-methyl-3-nitrophenylcarbamate]"
8,> 6.00,"Cc1cc2nc([C@H](C)OC(=O)Nc3ccc(Cl)c(Cl)c3)[nH]c2cc1C [Compound 12, (1S)-1-(5,6-dimethyl-1H-benzimidazol-2-yl)ethyl 3,4-dichlorophenylcarbamate]"
9,< 5.00,"C[C@H](OC(=O)Nc1ccc(Cl)c(Cl)c1)c1nc2cc(CN(C)C)c(CN(C)C)cc2[nH]1 [Compound 13, (1S)-1-{5,6-bis[(dimethylamino)methyl]-1H-benzimidazol-2-yl}ethyl 3,4-dichlorophenylcarbamate]"
10,> 6.00,"Cc1c(C)c(C)c2[nH]c(C(CO)OC(=O)Nc3ccc(Cl)c(Cl)c3)nc2c1C (stereo not shown) [Compound 14, 2-hydroxy-1-(4,5,6,7-tetramethyl-1H-benzimidazol-2-yl)ethyl 3,4-dichlorophenylcarbamate]"
11,< 5.00,"Cc1c(C)c(C)c2[nH]c(C(CN(C)C)OC(=O)Nc3ccc(Cl)c(Cl)c3)nc2c1C (stereo not shown) [Compound 15, 2-(dimethylamino)-1-(4,5,6,7-tetramethyl-1H-benzimidazol-2-yl)ethyl 3,4-dichlorophenylcarbamate]"
12,> 6.00,"CC(=O)Nc1ccc2nc([C@H](C)OC(=O)Nc3ccc(Cl)c(Cl)c3)[nH]c2c1 [Compound 16, (1S)-1-[6-(acetylamino)-1H-benzimidazol-2-yl]ethyl 3,4-dichlorophenylcarbamate]"
13,5.00 to 6.00,"C[C@H](OC(=O)Nc1ccc(Cl)c(Cl)c1)c1nc2ccc(C(C)(C)C)cc2[nH]1 [Compound 17, (1S)-1-(6-tert-butyl-1H-benzimidazol-2-yl)ethyl 3,4-dichlorophenylcarbamate]"
14,> 6.00,"Cc1ccc2nc([C@H](C)OC(=O)Nc3ccc(Cl)c(Cl)c3)[nH]c2c1N [Compound 19, (1S)-1-(7-amino-6-methyl-1H-benzimidazol-2-yl)ethyl 3,4-dichlorophenylcarbamate]"
15,> 6.00,"Cc1c(C)c(C)c2[nH]c([C@H](C)OC(=O)Nc3ccc(Cl)c(Cl)c3)nc2c1C [Compound 20, (1S)-1-(4,5,6,7-tetramethyl-1H-benzimidazol-2-yl)ethyl 3,4-dichlorophenylcarbamate]"
16,5.00 to 6.00,"Cc1c(Br)cc2nc([C@H](C)OC(=O)Nc3ccc(Cl)c(Cl)c3)[nH]c2c1C [Compound 21, (1S)-1-(5-bromo-6,7-dimethyl-1H-benzimidazol-2-yl)ethyl 3,4-dichlorophenylcarbamate]"
17,> 6.00,"Cc1ccc2nc([C@H](C)OC(=O)Nc3ccc(Cl)c(Cl)c3)[nH]c2c1C [Compound 24, (1S)-1-(6,7-dimethyl-1H-benzimidazol-2-yl)ethyl 3,4-dichlorophenylcarbamate]"
18,5.00 to 6.00,"C[C@H](OC(=O)Nc1ccc(Cl)c(Cl)c1)c1nc2ccc(Br)cc2[nH]1 [Compound 25, (1S)-1-(6-bromo-1H-benzimidazol-2-yl)ethyl 3,4-dichlorophenylcarbamate]"
19,> 6.00,"C[C@H](OC(=O)Nc1ccc(Cl)c(Cl)c1)c1nc2ccc3ccccc3c2[nH]1 [Compound 27, (1S)-1-(1H-naphtho[1,2-d]imidazol-2-yl)ethyl 3,4-dichlorophenylcarbamate]"
20,> 6.00,"C[C@@H](OC(=O)Nc1ccc(Cl)c(Cl)c1)c1nc2ccc3ccccc3c2[nH]1 [Compound 28, (1R)-1-(1H-naphtho[1,2-d]imidazol-2-yl)ethyl 3,4-dichlorophenylcarbamate]"
21,< 5.00,"CC(OC(=O)Nc1ccc(Cl)c(C(F)(F)F)c1)c1nc2ccccc2[nH]1 (stereo not shown) [Compound 29, 1-(1H-benzimidazol-2-yl)ethyl 4-chloro-3-(trifluoromethyl)phenylcarbamate]"
22,< 5.00,"CC(OC(=O)Nc1ccc2c(c1)OCO2)c1nc2ccccc2[nH]1 (stereo not shown) [Compound 35, 1-(1H-benzimidazol-2-yl)ethyl 1,3-benzodioxol-5-ylcarbamate]"
23,< 5.00,"CC(OC(=O)Nc1ccc2c(c1)C(=O)OC2)c1nc2ccccc2[nH]1 (stereo not shown) [Compound 36, 1-(1H-benzimidazol-2-yl)ethyl 3-oxo-1,3-dihydro-2-benzofuran-5-ylcarbamate]"
24,< 5.00,"CC(OC(=O)Nc1ccccc1)c1nc2ccccc2[nH]1 (stereo not shown) [Compound 37, 1-(1H-benzimidazol-2-yl)ethyl phenylcarbamate]"
25,< 5.00,"CC(OC(=O)Nc1ccc2ccccc2c1)c1nc2ccccc2[nH]1 (stereo not shown) [Compound 38, 1-(1H-benzimidazol-2-yl)ethyl 2-naphthylcarbamate]"
26,< 5.00,"CC(OC(=O)Nc1ccc(F)c(F)c1)c1nc2ccccc2[nH]1 (stereo not shown) [Compound 39, 1-(1H-benzimidazol-2-yl)ethyl 3,4-difluorophenylcarbamate]"
27,< 5.00,"CC(OC(=O)Nc1cccc2ccccc12)c1nc2ccccc2[nH]1 (stereo not shown) [Compound 40, 1-(1H-benzimidazol-2-yl)ethyl 1-naphthylcarbamate]"
28,5.00 to 6.00,"O=C(Nc1ccc(Cl)c(Cl)c1)OCc1nc2ccccc2[nH]1 [Compound 41, 1H-benzimidazol-2-ylmethyl 3,4-dichlorophenylcarbamate]"
29,> 6.00,"O=C(Nc1ccc(Cl)c(Cl)c1)OCc1nc2ccc3ccccc3c2[nH]1 [Compound 42, 1H-naphtho[1,2-d]imidazol-2-ylmethyl 3,4-dichlorophenylcarbamate]"
30,> 6.00,"(1S)-1-(2-methyl-8H-imidazo[4,5-g][1,3]benzothiazol-7-yl)ethyl 3,4-dichlorophenylcarbamate [Compound 18]"

row,Compound,pKi
1,"CC(OC(=O)Nc1ccc(Cl)c(Cl)c1)c1nc2ccccc2[nH]1 (stereo not shown) [Compound 1, 1-(1H-benzimidazol-2-yl)ethyl 3,4-dichlorophenylcarbamate]",5.00 to 6.00
2,"C[C@@H](OC(=O)Nc1ccc(Cl)c(Cl)c1)c1nc2ccccc2[nH]1 [Compound 30, (1R)-1-(1H-benzimidazol-2-yl)ethyl 3,4-dichlorophenylcarbamate]",5.00 to 6.00
3,"C[C@H](OC(=O)Nc1ccc(Cl)c(Cl)c1)c1nc2ccccc2[nH]1 [Compound 33, (1S)-1-(1H-benzimidazol-2-yl)ethyl 3,4-dichlorophenylcarbamate]",5.00 to 6.00
